Values of other authors in patent publication US20230225968A1, “PROCESS FOR PRODUCING VISIBLY CLEAR AQUEOUS CONSUMABLE PRODUCTS” (CHAVAN, Neha, priority 2020, published 2023).

Conditions: oil-based delivery systems; humans

C=C(C)[C@@H]1CCC(C)=C[C@H]1c1c(O)cc(CCCCC)cc1O [CBD, cannabidiol]
total CBD absorbed: 4%
